Test results published in patent publication US12188936B2, “Biomarkers and therapeutics for endocrine therapy resistance” (LUNELLA BIOTECH, INC., priority 2018, dated 2025).

Tests used:
[1] = test system: MCF7-Y537S cells; test: Mammosphere formation assay; assay type: cell-based, human; settings: 72-hour pre-treatment with 1 μM, 5 days culture
Protocol: (§1) All of the transfected MCF7 cell lines were grown as mammospheres. […] In these figures, ** indicates p<0.005; and ns indicates not significant as evaluated by Student's t test.
(§2) MCF7 3D-mammosphere formation: A single cell suspension was prepared using enzymatic (lx Trypsin-EDTA, Sigma Aldrich, #T3924), and manual disaggregation (25 gauge needle). Cells were plated at a density of 500 cells/cm^2 in mammosphere medium (DMEM-F12+B27+20 ng/ml EGF+PenStrep) under non-adherent conditions, in culture dishes pre-coated with (2-hydroxyethylmethacrylate) (poly-HEMA, Sigma, #P3932), called “mammosphere plates.” Then, the cells were pre-treated for 72 hours with 1 μM of 4-OH-Tamoxifen. Vehicle alone (DMSO) control cells were processed in parallel. Afterwards, they were trypsined and seeded in mammosphere plates. Cells were grown for 5 days and maintained in a humidified incubator at 37° C. After 5 days of culture, 3D-spheres>50 μm were counted using an eye piece (“graticule”), and the percentage of cells plated which formed spheres was calculated and is referred to as percent mammosphere formation, and was normalized to one (1=100% MSF).

[2] = test system: transfected MCF7 cell lines (other than Y537S and ESR1 WT); test: Mammosphere formation assay; assay type: cell-based, human; settings: all transfected MCF7 cell lines except Y537S and ESR1 (WT), 72-hour pre-treatment with 1 μM, 5 days culture
Protocol: as §1, §2

[3] = test system: MCF7-Y537S cells; test: SRB survival assay (cell viability), 5-day exposure; assay type: cell-based, human; settings: 4-OHT 1 μM, 5 days, vs control
Description: For FIG. 1, ** indicates p<0.005.

[4] = test system: MCF7-Y537S cells; test: Annexin-V analysis (apoptosis, FACS); assay type: cell-based, human; settings: 1 μM for 72 hours
Description: (§3) One mechanism by which the Y537S mutation may promote mammosphere formation in the presence of Tamoxifen is by conferring resistance to apoptosis. Staining with annexin V may be used to detect apoptotic cells by its ability to bind to phosphatidylserine, a marker of apoptosis when it is on the outer leaflet of the plasma membrane. Increases in annexin V staining indicates an increase in apoptosis.
(§4) The data in FIGS. 4A-4C were obtained as follows. The transduced MCF7 cell lines were all plated in 6-well plates. On the next day, the cells were treated with 4-OHT (1 μM) for 72 hours. MCF7-EV cells were processed in parallel, as a negative control. […] For the data in these drawings, * indicates p<0.05.
(§5) Annexin-V analysis: Cell death was quantified by flow cytometry using propidium iodide (PI) and Annexin V-FITC (20). Briefly, 1.5×10^5 all the transfected cells were plated in 6 multi-well plate in complete media supplemented with 10% HiFBS. The next day, cells were treated with 1 μM of 4-OH-Tamoxifen (4-OHT) for 48 h and 72 h. Vehicle alone (DMSO) for control cells were processed in parallel. After 48 hours, cells were harvested and washed in cold phosphate-buffered saline (PBS). […] Cells were then analyzed by flow cytometry using a PE Texas Red signal detector for PI staining and a FITC signal detector to detect Annexin V binding. 30,000 events were recorded by FACS using Fortessa BD. […]

[5] = test system: transfected MCF7 cell lines; test: Annexin-V analysis (apoptosis, FACS); assay type: cell-based, human; settings: 1 μM for 72 hours
Description: as §3, §4, §5

[6] = test system: other MCF7 cell lines (ESR1 WT, Y537N, ErbB2, EV); settings: 4-OHT 1 μM, 5 days
Protocol: To directly determine the validity of our model system, MCF7-Y537S cells were cultured for 5 days in the presence of Tamoxifen (1 μM) to assess its effect on cell viability. […] MCF7 cells were stably-transduced with either ESR1 (WT, Y537S, or Y537N) or ErbB2 (HER2), to genetically create a clinically relevant model of endocrine therapy resistance. Vector alone control MCF7 cells were generated in parallel (empty vector; EV; p-EV-105-puroR), as a negative control. […] The SRB assay was performed as a measure of cell viability and the experiment was carried out for 5 days.
Sulfo-rhodamine B (SRB) assay: SRB measures total biomass by staining cellular proteins.

SMILES: CC/C(=C(\c1ccc(O)cc1)c1ccc(OCCN(C)C)cc1)c1ccccc1 [4-OHT, 4-OH-Tamoxifen]
- mammosphere formation [1]: remain largely unaffected
- mammosphere formation efficiency (MFE) [2]: inhibited mammosphere formation efficiency
- cell viability (SRB survival) [3]: clearly show resistance
- pro-apoptotic effect (annexin V levels) [4]: specifically resistant to the pro-apoptotic effects
- annexin V levels [5]: increased in all transfected cell lines
- cell viability (SRB survival) [6]: significant inhibitory effects
